These results are taken from patent publication US11149054B2, “Oxysterols and methods of use thereof” (Sage Therapeutics, Inc., priority 2016, dated 2021).

Each structure is given as a SMILES string. Like-named read-outs stand apart in the source and are kept apart here.

Experiment [1] has as its target GlunN1/GluN2A glutamate receptors (Homo sapiens (Human), UniProt Q05586+Q12879). Briefly: Whole-cell patch clamp of mammalian cells (Ionworks Barracuda), positive allosteric modulation, GluN1/GluN2A. The experiment is classed as cell-based. A digest of the protocol:
(§1)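 Perforated-patch whole-cell recording, holding −70 mV, −40 mV during application; Cs-based internal pH 7.2, external with 5 mM CaCl2 pH 7.4. Test article pre-applied alone 5 min, then co-applied with EC20 L-glutamate plus 30 μM glycine. EC50 from Hill fit of % activation over the EC20 current.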
Background: In patch-clamp work, channel activity is measured electrically.

Experiment [2] deals with GluN2B glutamate receptors (Homo sapiens (Human), UniProt Q05586+Q13224). Briefly: Whole-cell patch clamp of mammalian cells (Ionworks Barracuda), positive allosteric modulation, GluN2B. The experiment is classed as cell-based. Particulars: for Emax: read-out: Avg Emax 2B (%). A digest of the protocol:
as §1

The mark [3] stands for this setting: HEK293 cells, % potentiation of current elicited with EC20 L-glutamate and 30 μM glycine, read-out: Avg Emax 2A (%).
Setting [4] is: % potentiation of current elicited with EC20 L-glutamate and 30 μM glycine.
Where [5] appears, read: HEK293 cells, co-application with EC20 L-glutamate and 30 μM glycine, 8-point concentration-response, read-out: Avg EC50 2A.
The mark [6] stands for this setting: co-application with EC20 L-glutamate and 30 μM glycine, 8-point concentration-response, read-out: Avg EC50 2B.

Sequence of GluN2B glutamate receptors (Q13224 27-1484, other chains not shown): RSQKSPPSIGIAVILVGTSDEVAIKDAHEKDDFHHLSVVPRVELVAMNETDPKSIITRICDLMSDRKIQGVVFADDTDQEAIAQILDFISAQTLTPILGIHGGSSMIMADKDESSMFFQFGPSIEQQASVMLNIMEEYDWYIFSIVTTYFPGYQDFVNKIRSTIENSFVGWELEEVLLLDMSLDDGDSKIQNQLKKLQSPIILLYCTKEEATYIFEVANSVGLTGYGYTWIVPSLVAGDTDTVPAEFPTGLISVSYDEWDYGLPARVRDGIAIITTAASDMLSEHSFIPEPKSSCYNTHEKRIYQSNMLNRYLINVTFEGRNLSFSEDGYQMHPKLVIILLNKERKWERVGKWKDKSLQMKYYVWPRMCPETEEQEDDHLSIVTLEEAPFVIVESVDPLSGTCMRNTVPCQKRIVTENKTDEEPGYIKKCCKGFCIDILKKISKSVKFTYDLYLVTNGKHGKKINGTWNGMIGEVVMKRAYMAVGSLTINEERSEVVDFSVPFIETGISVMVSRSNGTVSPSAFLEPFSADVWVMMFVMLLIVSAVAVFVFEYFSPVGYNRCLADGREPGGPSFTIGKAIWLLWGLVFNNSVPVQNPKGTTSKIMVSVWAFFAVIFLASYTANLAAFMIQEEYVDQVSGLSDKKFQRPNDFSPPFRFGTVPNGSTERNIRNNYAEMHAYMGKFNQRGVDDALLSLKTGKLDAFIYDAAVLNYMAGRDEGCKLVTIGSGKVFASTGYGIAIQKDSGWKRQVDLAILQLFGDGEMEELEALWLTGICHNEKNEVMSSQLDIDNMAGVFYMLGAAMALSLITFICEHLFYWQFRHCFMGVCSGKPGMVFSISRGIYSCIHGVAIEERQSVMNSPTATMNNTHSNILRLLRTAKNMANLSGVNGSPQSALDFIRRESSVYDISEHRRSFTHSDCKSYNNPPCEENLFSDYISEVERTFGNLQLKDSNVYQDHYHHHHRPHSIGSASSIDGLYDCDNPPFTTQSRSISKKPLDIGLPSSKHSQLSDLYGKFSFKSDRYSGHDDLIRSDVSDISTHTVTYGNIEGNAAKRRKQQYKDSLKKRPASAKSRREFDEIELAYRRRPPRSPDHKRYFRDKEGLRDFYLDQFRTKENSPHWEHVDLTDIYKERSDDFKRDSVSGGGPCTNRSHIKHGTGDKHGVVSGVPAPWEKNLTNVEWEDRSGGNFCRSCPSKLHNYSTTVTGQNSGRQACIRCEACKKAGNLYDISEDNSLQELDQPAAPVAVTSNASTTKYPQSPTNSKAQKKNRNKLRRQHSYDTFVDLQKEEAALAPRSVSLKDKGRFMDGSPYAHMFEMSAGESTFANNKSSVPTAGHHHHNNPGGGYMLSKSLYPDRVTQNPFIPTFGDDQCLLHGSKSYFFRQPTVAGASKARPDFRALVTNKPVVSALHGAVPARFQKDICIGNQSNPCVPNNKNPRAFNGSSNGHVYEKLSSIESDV
Sequence of GlunN1/GluN2A glutamate receptors (Q12879 23-1464, other chains not shown): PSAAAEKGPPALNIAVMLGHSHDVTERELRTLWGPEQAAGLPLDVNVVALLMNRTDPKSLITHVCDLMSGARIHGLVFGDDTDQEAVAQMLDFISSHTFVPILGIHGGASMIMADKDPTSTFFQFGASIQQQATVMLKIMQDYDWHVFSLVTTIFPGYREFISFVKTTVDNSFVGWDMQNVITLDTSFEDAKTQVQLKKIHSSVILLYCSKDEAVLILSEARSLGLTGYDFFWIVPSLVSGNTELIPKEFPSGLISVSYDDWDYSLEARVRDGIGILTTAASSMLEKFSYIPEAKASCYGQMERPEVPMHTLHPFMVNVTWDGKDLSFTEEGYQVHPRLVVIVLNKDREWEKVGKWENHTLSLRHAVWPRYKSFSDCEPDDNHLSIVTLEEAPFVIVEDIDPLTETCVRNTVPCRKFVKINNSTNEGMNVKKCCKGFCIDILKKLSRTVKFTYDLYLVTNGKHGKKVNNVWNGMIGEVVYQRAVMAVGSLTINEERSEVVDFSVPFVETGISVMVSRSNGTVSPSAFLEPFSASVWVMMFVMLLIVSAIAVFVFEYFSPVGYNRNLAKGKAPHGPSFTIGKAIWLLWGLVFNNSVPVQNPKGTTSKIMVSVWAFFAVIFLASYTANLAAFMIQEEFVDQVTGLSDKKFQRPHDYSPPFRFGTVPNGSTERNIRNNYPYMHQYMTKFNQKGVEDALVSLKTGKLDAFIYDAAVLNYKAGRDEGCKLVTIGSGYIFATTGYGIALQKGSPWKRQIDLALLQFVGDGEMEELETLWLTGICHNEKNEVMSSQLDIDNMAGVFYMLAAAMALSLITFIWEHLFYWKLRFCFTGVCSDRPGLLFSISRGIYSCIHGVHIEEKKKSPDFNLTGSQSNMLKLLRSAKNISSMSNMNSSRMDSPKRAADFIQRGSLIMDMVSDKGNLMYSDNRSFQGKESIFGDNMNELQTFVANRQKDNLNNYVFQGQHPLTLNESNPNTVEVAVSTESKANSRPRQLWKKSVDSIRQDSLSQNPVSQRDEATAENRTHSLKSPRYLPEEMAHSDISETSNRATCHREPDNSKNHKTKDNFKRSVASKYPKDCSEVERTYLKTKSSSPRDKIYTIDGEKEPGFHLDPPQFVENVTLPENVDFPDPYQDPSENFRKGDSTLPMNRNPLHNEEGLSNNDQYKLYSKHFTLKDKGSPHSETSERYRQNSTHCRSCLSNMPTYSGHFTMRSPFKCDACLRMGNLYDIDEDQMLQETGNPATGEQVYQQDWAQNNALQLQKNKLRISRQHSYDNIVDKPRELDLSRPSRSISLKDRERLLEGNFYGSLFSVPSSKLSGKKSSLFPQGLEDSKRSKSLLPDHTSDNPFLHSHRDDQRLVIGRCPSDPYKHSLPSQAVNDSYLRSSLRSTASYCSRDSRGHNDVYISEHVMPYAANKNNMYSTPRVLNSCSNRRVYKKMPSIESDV

With `CO[C@H]1CC[C@](O)(CC[C@@H](C)[C@H]2CC[C@H]3[C@@H]4CC[C@H]5C[C@](O)(C(F)(F)F)CC[C@]5(C)[C@H]4CC[C@]23C)CC1` [Compound 4585], the figures for the EC50 in experiment [1] and in experiment [2] were 215 nM and 166 nM, respectively. Moreover, the Emax was found to be 72.2% in experiment [1] (setting [3]) and 123% in experiment [2] (setting [4]).
Take `COC[C@H]1CC[C@@](O)(CC[C@@H](C)[C@H]2CC[C@H]3[C@@H]4CC[C@H]5C[C@](O)(C(F)(F)F)CC[C@]5(C)[C@H]4CC[C@]23C)CC1` [Compound 4656]: the results for the EC50 in experiment [1] and in experiment [2] were 1600 nM and 2160 nM, respectively. Further, the Emax in experiment [1] (setting [3]) came to 134%; in experiment [2] (setting [4]) it was 122%.
On to `COC[C@H]1CC[C@](O)(CC[C@@H](C)[C@H]2CC[C@H]3[C@@H]4CC[C@H]5C[C@](O)(C(F)(F)F)CC[C@]5(C)[C@H]4CC[C@]23C)CC1` [Compound 4657], for which the EC50 in experiment [1] is 422 nM; in experiment [2], 130 nM. Also, the Emax was 74% in experiment [1] (setting [3]) and 62.9% in experiment [2] (setting [4]).
Consider `C[C@H](CCC1(O)CCC(C)(C)CC1)[C@H]1CC[C@H]2[C@@H]3CC=C4C[C@](O)(C(F)(F)F)CC[C@]4(C)[C@H]3CC[C@]12C` [Compound 4799], for which the EC50 in experiment [1] was over 10000 nM; in experiment [2] it was 760 nM. Besides, the Emax in experiment [1] (setting [3]) was found to be 36.1%; in experiment [2] (setting [4]), 32.8%.
The like results for `C[C@H](CCC1(O)CCC2(CC1)CC2)[C@H]1CC[C@H]2[C@@H]3CC[C@H]4C[C@](O)(C(F)(F)F)CC[C@]4(C)[C@H]3CC[C@]12C` [Compound 4805] were, in that order, 356 nM, 362 nM, 175% and 129%.
As to `CCC1(C)CCC(O)(CC[C@@H](C)[C@H]2CC[C@H]3[C@@H]4CC[C@H]5C[C@](O)(C(F)(F)F)CC[C@]5(C)[C@H]4CC[C@]23C)CC1` (some centres unmarked) [Compound 4906], the Emax came to 8.8% in experiment [1] (setting [3]) and 14.8% in experiment [2] (setting [4]). Moreover, the EC50 in experiment [1] (setting [5]) and in experiment [2] (setting [6]) was over 10000 nM each time.
With `C[C@H](CCC1(O)CCC2(CC1)COC2)[C@H]1CC[C@H]2[C@@H]3CC[C@H]4C[C@](O)(C(F)(F)F)CC[C@]4(C)[C@H]3CC[C@]12C` [Compound 5009], the EC50 in experiment [1] and in experiment [2] was over 10000 nM in each case. Moreover, the figures for the Emax in experiment [1] (setting [3]) and in experiment [2] (setting [4]) were 27.5% and 14.5%, respectively.
As to `C[C@H](CCCC(C)(C)O)[C@H]1CC[C@H]2[C@@H]3CC[C@H]4C[C@](O)(C(F)(F)F)CC[C@]4(C)[C@H]3CC[C@]12C` [Compound 5116], the Emax in experiment [1] (setting [3]) was found to be 185%; in experiment [2] (setting [4]) it was 214%. The figures for the EC50 in experiment [1] (setting [5]) and in experiment [2] (setting [6]) were 102 nM and 130 nM, respectively.
Turning to `C[C@H](CCC1(O)CCC(OC(F)F)CC1)[C@H]1CC[C@H]2[C@@H]3CC[C@H]4C[C@](O)(C(F)(F)F)CC[C@]4(C)[C@H]3CC[C@]12C` (some centres unmarked) [Compound 5131], the Emax in experiment [1] (HEK293, read-out: Avg Emax 2A (%)) amounted to 52.9%; in experiment [2], 39%.
As to `C[C@H](CCC1(O)CCC(C)(C)CC1)[C@H]1CC[C@H]2[C@@H]3CC[C@@H]4C[C@](O)(C(F)(F)F)CC[C@]4(C)[C@H]3C(=O)C[C@]12C` [Compound 5294], the values for the Emax in experiment [1] (setting [3]) and in experiment [2] (setting [4]) were 32.4% and 13.9%, respectively.
In the case of `CC[C@]1(O)CC[C@@]2(C)C(=CC[C@H]3[C@@H]4CC[C@H]([C@H](C)CCC(O)Cc5ccccc5)[C@@]4(C)CC[C@@H]32)C1` (some centres unmarked) [Compound 6010], the values for the EC50 in experiment [1] and in experiment [2] were 1100 nM and 1570 nM, respectively. Also, the values for the Emax in experiment [1] (setting [3]) and in experiment [2] (setting [4]) were 239% and 184%, respectively.
The like results for `CC[C@]1(O)CC[C@@]2(C)C(=CC[C@H]3[C@@H]4CC[C@H]([C@H](C)CC[C@H](O)Cc5ccccc5)[C@@]4(C)CC[C@@H]32)C1` [Compound 6051] were, in that order, 500 nM, 1260 nM, 293% and 292%.

As usually defined, the EC50 is the concentration at which the effect is half-maximal. As usually defined, the Emax is the size of the effect at its maximum, as opposed to the concentration needed.
